pIC50: −log10 of the molar value.
What was measured:
JAK2 = target: T1, JAK2 (Homo sapiens, UniProt O60674); experiment: kinobeads assay (competition with affinity matrix in mixed Molt4/Ramos cell lysate, dot blot detection), JAK2; assay type: binding; conditions: activity level
T1 construct: endogenous in cells; host or cells: Mixed Molt4 / Ramos cell lysate (1:2)
Method: (§1) The compounds of the present invention as described in the previous examples were tested in a kinobeads assay as described for ZAP-70 (WO-A 2007/137867). Briefly, test compounds (at various concentrations) and the affinity matrix with the immobilized aminopyrido-pyrimidine ligand 24 were added to cell lysate aliquots and allowed to bind to the proteins in the lysate sample. After the incubation time the beads with captured proteins were separated from the lysate. Bound proteins were then eluted and the presence of, JAK2 and JAK3 was detected and quantified using specific antibodies in a dot blot procedure and the Odyssey infrared detection system. Dose response curves for individual kinases were generated and IC50 values calculated. Kinobeads assays for ZAP-70 (WO-A 2007/137867) and for kinase selectivity profiling (WO-A 2006/134056) have been previously described.
(§2) 5× DP buffer: 250 mM Tris-HCl pH 7.4, 25% Glycerol, 7.5 mM MgCl2, 750 mM NaCl, 5 mM Na3VO4; filter the 5× DP buffer through a 0.22 μm filter and store in aliquots at −80° C. The 5× DP buffer is diluted with H2O to 1× DP buffer containing 1 mM DTT and 25 mM NaF.
(§3) Stock solutions of test compounds were prepared in DMSO. In a 96 well plate 30 μl solution of diluted test compounds at 5 mM in DMSO were prepared. Starting with this solution a 1:3 dilution series (9 steps) was prepared. For control experiments (no test compound) a buffer containing 2% DMSO was used.
(§4) Molt4 cells (ATCC catalogue number CRL-1582) and Ramos cells (ATCC catalogue number CRL-1596) were grown in 1 litre Spinner flasks (Integra Biosciences, #182101) in suspension in RPMI 1640 medium (Invitrogen, #21875-034) supplemented with 10% Fetal Bovine Serum (Invitrogen) at a density between 0.15×10^6 and 1.2×10^6 cells/ml. Cells were harvested by centrifugation, washed once with 1× PBS buffer (Invitrogen, #14190-094) and cell pellets were frozen in liquid nitrogen and subsequently stored at −80° C. Cells were homogenized in a Potter S homogenizer in lysis buffer: 50 mM Tris-HCl, 0.8% NP40, 5% glycerol, 150 mM NaCl, 1.5 mM MgCl2, 25 mM NaF, 1 mM sodium vanadate, 1 mM DTT, pH 7.5. One complete EDTA-free tablet (protease inhibitor cocktail, Roche Diagnostics, 1873580) per 25 ml buffer was added. The material was dounced 10 times using a mechanized POTTER S, transferred to 50 ml falcon tubes, incubated for 30 minutes on ice and spun down for 10 min at 20,000 g at 4° C. (10,000 rpm in Sorvall SLA600, precooled). The supernatant was transferred to an ultracentrifuge (UZ)-polycarbonate tube (Beckmann, 355654) and spun for 1 hour at 100.000 g at 4° C. (33.500 rpm in Ti50.2, precooled). The supernatant was transferred again to a fresh 50 ml falcon tube, the protein concentration was determined by a Bradford assay (BioRad) and samples containing 50 mg of protein per aliquot were prepared. The samples were immediately used for experiments or frozen in liquid nitrogen and stored frozen at −80° C.
(§5) Cell lysate (approximately 50 mg protein per plate) was thawed in a water bath at room temperature and then kept on ice. To the thawed cell lysate 1× DP 0.8% NP40 buffer containing protease inhibitors (1 tablet for 25 ml buffer; EDTA-free protease inhibitor cocktail; Roche Diagnostics 1873580) was added in order to reach a final protein concentration of 5 mg/ml total protein. The diluted cell lysate was stored on ice. Mixed Molt4/Ramos lysate was prepared by combining one volume of Molt4 lysate and two volumes of Ramos lysate (ratio 1:2).
(§6) To a 96 well filter plate (Multiscreen HTS, BV Filter Plates, Millipore #MSBVN1250) were added per well: 100 μl affinity matrix (3% beads slurry), 3 μl of compound solution, and 50 μl of diluted lysate. Plates were sealed and incubated for three hours in a cold room on a plate shaker (Heidolph tiramax 1000) at 750 rpm. Afterwards the plate was washed twice with 230 μl washing buffer (1× DP 0.4% NP40). […]

JAK3 = target: T2, JAK3 (Homo sapiens, UniProt P52333); experiment: kinobeads assay (competition with affinity matrix in mixed Molt4/Ramos cell lysate, dot blot detection), JAK3; assay type: binding; conditions: activity level
T2 construct: endogenous in cells; host or cells: Mixed Molt4 / Ramos cell lysate (1:2)
T2 sequence (P52333 1-1124): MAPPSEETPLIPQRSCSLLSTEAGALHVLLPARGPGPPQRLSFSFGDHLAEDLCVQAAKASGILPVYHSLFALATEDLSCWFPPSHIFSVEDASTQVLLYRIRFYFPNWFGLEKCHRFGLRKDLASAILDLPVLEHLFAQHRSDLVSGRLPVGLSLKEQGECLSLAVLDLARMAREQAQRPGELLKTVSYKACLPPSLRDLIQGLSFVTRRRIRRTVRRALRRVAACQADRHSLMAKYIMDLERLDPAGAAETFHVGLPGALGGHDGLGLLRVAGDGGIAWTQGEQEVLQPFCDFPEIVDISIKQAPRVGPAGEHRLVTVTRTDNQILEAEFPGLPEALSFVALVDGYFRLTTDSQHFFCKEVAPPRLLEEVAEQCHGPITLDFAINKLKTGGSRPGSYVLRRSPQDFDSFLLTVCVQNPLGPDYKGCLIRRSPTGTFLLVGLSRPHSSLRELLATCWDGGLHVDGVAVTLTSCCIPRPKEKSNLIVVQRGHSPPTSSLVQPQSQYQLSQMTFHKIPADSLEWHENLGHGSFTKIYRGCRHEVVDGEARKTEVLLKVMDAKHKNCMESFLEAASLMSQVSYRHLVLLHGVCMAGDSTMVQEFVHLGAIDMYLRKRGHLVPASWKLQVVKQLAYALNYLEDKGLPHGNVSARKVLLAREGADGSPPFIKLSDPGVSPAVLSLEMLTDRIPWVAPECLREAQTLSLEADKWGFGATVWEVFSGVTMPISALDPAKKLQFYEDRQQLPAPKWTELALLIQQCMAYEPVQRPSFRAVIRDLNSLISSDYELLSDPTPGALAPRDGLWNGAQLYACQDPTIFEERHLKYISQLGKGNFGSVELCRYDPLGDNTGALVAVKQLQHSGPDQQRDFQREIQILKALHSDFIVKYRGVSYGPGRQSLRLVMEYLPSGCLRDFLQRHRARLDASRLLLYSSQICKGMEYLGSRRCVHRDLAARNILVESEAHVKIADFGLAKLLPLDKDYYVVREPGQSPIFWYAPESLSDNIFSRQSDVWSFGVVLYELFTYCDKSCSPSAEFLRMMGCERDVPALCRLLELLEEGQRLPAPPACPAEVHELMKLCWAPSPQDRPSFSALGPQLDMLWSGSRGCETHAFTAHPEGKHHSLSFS
Method: as §1, §2, §3, §4, §5, §6

T1 sequence (O60674 whole entry): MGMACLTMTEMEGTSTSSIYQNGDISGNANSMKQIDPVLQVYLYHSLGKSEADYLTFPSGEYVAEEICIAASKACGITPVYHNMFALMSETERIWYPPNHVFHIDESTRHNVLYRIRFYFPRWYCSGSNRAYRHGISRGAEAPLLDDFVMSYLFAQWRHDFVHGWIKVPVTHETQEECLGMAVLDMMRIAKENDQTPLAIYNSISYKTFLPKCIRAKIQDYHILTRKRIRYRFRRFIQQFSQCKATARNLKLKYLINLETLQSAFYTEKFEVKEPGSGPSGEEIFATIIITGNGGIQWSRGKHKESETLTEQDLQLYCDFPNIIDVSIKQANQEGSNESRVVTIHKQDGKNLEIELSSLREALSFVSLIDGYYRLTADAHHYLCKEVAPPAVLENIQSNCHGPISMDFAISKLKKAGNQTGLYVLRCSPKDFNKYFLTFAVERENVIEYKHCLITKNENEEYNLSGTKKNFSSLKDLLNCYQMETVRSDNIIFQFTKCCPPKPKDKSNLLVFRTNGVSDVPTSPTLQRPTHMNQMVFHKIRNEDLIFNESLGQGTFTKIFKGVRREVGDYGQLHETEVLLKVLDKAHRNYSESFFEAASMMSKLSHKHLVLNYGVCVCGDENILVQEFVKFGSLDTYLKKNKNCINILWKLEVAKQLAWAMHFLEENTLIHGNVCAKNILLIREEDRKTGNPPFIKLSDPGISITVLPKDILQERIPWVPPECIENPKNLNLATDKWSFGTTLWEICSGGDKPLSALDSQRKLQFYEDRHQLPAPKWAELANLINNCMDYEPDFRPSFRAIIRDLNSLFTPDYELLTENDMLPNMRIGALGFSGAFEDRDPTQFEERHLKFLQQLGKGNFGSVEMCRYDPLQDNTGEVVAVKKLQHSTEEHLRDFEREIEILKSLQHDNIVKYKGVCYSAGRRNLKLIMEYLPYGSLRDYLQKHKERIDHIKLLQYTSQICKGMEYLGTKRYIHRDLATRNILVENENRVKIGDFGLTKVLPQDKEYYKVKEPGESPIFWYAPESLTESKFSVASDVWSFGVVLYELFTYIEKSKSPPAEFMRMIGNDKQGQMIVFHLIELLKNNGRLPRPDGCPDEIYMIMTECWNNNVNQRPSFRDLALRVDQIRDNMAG

Row | Structure (SMILES) | pIC50 (JAK2) | pIC50 (JAK3)
1 | CS(=O)(=O)Nc1ccccc1Nc1nc(Nc2cc(-n3cnnn3)ccc2F)ncc1F [Example 1, N-(2-(5-fluoro-2-(2-fluoro-5-(1H-tetrazol-1-yl)phenylamino)pyrimidin-4-ylamino)phenyl)methanesulfonamide] | 5.00 to 6.00 | > 7.00
2 | CS(=O)(=O)Nc1ccccc1Nc1nc(Nc2ccc(N3CCOCC3)cc2F)ncc1F [Example 2, N-(2-(5-fluoro-2-(2-fluoro-4-morpholinophenylamino)pyrimidin-4-ylamino)phenyl)methanesulfonamide] | < 5.00 | 6.00 to 7.00
3 | CS(=O)(=O)Nc1c(F)cccc1Nc1nc(Nc2cc(-n3cnnn3)ccc2F)ncc1F [Example 3, N-(2-fluoro-6-(5-fluoro-2-(2-fluoro-5-(1H-tetrazol-1-yl)phenylamino)pyrimidin-4-ylamino)phenyl)methanesulfonamide] | < 5.00 | > 7.00
4 | Cc1cccc(Nc2nc(Nc3cc(-n4cnnn4)ccc3F)ncc2F)c1NS(C)(=O)=O [Example 4, N-(2-(5-fluoro-2-(2-fluoro-5-(1H-tetrazol-1-yl)phenylamino)pyrimidin-4-ylamino)-6-methylphenyl)methanesulfonamide] | < 5.00 | > 7.00
5 | COc1ccc(Nc2nc(Nc3cc(-n4cnnn4)ccc3F)ncc2F)c(NS(C)(=O)=O)c1 [Example 5, N-(2-(5-fluoro-2-(2-fluoro-5-(1H-tetrazol-1-yl)phenylamino)pyrimidin-4-ylamino)-5-methoxyphenyl)methanesulfonamide] | 5.00 to 6.00 | > 7.00
6 | CS(=O)(=O)Nc1ccccc1Nc1nc(Nc2cc(-n3cnnn3)ccc2F)ncc1Cl [Example 7, N-(2-(5-chloro-2-(2-fluoro-5-(1H-tetrazol-1-yl)phenylamino)pyrimidin-4-ylamino)phenyl)methanesulfonamide] | 6.00 to 7.00 | > 7.00
7 | Cc1cccc(Nc2nc(Nc3cc(-n4cnnn4)ccc3F)ncc2Cl)c1NS(C)(=O)=O [Example 9, N-(2-(5-chloro-2-(2-fluoro-5-(1H-tetrazol-1-yl)phenylamino)pyrimidin-4-ylamino)-6-methylphenyl)methanesulfonamide] | 6.00 to 7.00 | > 7.00
8 | COc1ccc(Nc2nc(Nc3cc(-n4cnnn4)ccc3F)ncc2Cl)c(NS(C)(=O)=O)c1 [Example 10, N-(2-(5-chloro-2-(2-fluoro-5-(1H-tetrazol-1-yl)phenylamino)pyrimidin-4-ylamino)-5-methoxyphenyl)methanesulfonamide] | 6.00 to 7.00 | > 7.00
9 | CS(=O)(=O)Nc1ccccc1Nc1nc(Nc2cc(-n3cnnn3)ccc2F)ncc1Br [Example 12, N-(2-(5-bromo-2-(2-fluoro-5-(1H-tetrazol-1-yl)phenylamino)pyrimidin-4-ylamino)phenyl)methanesulfonamide] | 6.00 to 7.00 | > 7.00
10 | CN(c1ccccc1Nc1nc(Nc2cc(-n3cnnn3)ccc2F)ncc1F)S(C)(=O)=O [Example 13, N-(2-(5-fluoro-2-(2-fluoro-5-(1H-tetrazol-1-yl)phenylamino)pyrimidin-4-ylamino)phenyl)-N-methylmethanesulfonamide] | 6.00 to 7.00 | > 7.00
11 | CCNC(=O)c1ccc(F)c(Nc2ncc(Cl)c(Nc3ccccc3NS(C)(=O)=O)n2)c1 [Example 14] | 6.00 to 7.00 | > 7.00
12 | CS(=O)(=O)Nc1ccccc1Nc1nc(Nc2cc(C(=O)NC3CC3)ccc2F)ncc1Cl [Example 15] |  | > 7.00
13 | CC(C)NC(=O)c1ccc(F)c(Nc2ncc(Cl)c(Nc3ccccc3NS(C)(=O)=O)n2)c1 [Example 16] |  | > 7.00
14 | CS(=O)(=O)Nc1ccccc1Nc1nc(Nc2cc(C(=O)N3CCCCC3)ccc2F)ncc1Cl [Example 17, N-(2-(5-chloro-2-(2-fluoro-5-(piperidine-1-carbonyl)phenylamino)pyrimidin-4-ylamino)phenyl)methanesulfonamide] | 5.00 to 6.00 | > 7.00
15 | CS(=O)(=O)Nc1ccccc1Nc1nc(Nc2cc(C(N)=O)ccc2F)ncc1Cl [Example 18, 3-(5-chloro-4-(2-(methylsulfonamido)phenylamino)pyrimidin-2-ylamino)-4-fluorobenzamide] | < 5.00 | > 7.00
16 | CCN(CC)C(=O)c1ccc(F)c(Nc2ncc(Cl)c(Nc3ccccc3NS(C)(=O)=O)n2)c1 [Example 19, 3-(5-chloro-4-(2-(methylsulfonamido)phenylamino)pyrimidin-2-ylamino)-N,N-diethyl-4-fluorobenzamide] |  | 6.00 to 7.00
17 | CS(=O)(=O)Nc1ccccc1Nc1nc(Nc2cc(C(=O)N3CCC3)ccc2F)ncc1Cl [Example 20, N-(2-(2-(5-(azetidine-1-carbonyl-2-fluorophenylamino))-5-chloropyrimidin-4-ylamino)phenyl)methanesulfonamide] |  | > 7.00
18 | CNC(=O)c1ccc(F)c(Nc2ncc(Cl)c(Nc3ccccc3NS(C)(=O)=O)n2)c1 [Example 21, 3-(5-chloro-4-(2-(methylsulfonamido)phenylamino)pyrimidin-2-ylamino)-4-fluoro-N-methybenzamide] | 5.00 to 6.00 | > 7.00
19 | CS(=O)(=O)Nc1ccccc1Nc1nc(Nc2cc(C(=O)NCCO)ccc2F)ncc1Cl [Example 22, 3-(5-chloro-4-(2-(methylsulfonamido)phenylamino)pyrimidin-2-ylamino)-4-fluoro-N-(2-hydroxyethyl)benzamide] | 5.00 to 6.00 | > 7.00
20 | CS(=O)(=O)Nc1ccccc1Nc1nc(Nc2cc(C(=O)NCC#N)ccc2F)ncc1Cl [Example 25] | 5.00 to 6.00 | > 7.00
